Measured values taken from ChEMBL document CHEMBL4831529, “Systematic Development of Peptide Inhibitors Targeting the CXCL12/HMGB1 Interaction” (J Med Chem, 2021).
Values belong to the compound of their own block, whether it stands above or below them. Calls of active or inactive are those of the source. The rule behind the calls is not given here.

Columns and labels:
[1] = target: C-X-C chemokine receptor type 4 (Homo sapiens) (UniProt P61073); assay: Inhibition of human CXCR4-mediated chemotaxis expressed in mouse 300-19 Pre-B cells assessed as reduction in CXCL12/HMGB1-induced cell migration at 200 uM; type: functional, cell-based
C-X-C chemokine receptor type 4 (Homo sapiens), sequence (P61073 whole entry): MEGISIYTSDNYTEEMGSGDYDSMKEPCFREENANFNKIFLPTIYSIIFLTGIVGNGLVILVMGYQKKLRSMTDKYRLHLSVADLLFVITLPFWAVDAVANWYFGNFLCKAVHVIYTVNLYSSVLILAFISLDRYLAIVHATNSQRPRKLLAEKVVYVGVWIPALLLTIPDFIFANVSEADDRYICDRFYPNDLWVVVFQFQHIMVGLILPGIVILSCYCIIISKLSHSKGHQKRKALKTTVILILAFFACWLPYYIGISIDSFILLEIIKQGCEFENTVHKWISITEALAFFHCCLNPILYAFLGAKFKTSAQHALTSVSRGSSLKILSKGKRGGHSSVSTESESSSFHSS

[2] = target: T1, High mobility group protein B1 (Homo sapiens, UniProt P09429); assay: Binding affinity to full-length N-terminal 6His-tagged HMGB1 (unknown origin) by NMR spectra
T1 sequence (P09429 whole entry): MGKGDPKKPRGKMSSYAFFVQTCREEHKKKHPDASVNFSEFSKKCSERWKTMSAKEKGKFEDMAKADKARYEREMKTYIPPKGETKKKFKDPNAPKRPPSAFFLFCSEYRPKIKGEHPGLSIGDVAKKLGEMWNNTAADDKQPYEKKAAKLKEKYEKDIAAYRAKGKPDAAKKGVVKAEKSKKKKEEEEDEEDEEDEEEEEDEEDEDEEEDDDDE

[3] = target: T1, High mobility group protein B1; assay: Binding affinity to 6His-tagged HMGB1 (unknown origin) incubated for 15 mins by MST analysis
[4] = target: C-X-C chemokine receptor type 4 (Homo sapiens) (UniProt P61073); assay: Inhibition of human CXCR4-mediated chemotaxis expressed in mouse 300-19 Pre-B cells assessed as reduction in CXCL12/HMGB1-induced cell migration at 100 uM; type: functional, cell-based
[5] = target: C-X-C chemokine receptor type 4 (Homo sapiens) (UniProt P61073); assay: Inhibition of human CXCR4-mediated chemotaxis expressed in mouse 300-19 Pre-B cells assessed as reduction in CXCL12-induced cell migration at 100 uM; type: functional, cell-based
[6] = target: C-X-C chemokine receptor type 4 (Homo sapiens) (UniProt P61073); assay: Inhibition of human CXCR4-mediated chemotaxis expressed in human monocytes assessed as reduction in CXCL12/HMGB1-induced cell migration at 100 uM; type: functional, cell-based; settings: Monocyte
[7] = target: C-X-C chemokine receptor type 4 (Homo sapiens) (UniProt P61073); assay: Inhibition of human CXCR4-mediated chemotaxis expressed in human monocytes assessed as reduction in CXCL12-induced cell migration at 100 uM; type: functional, cell-based; settings: Monocyte
[8] = target: C-X-C chemokine receptor type 4 (Homo sapiens) (UniProt P61073); assay: Inhibition of human CXCR4-mediated chemotaxis expressed in mouse 300-19 Pre-B cells assessed as reduction in CXCL12/HMGB1-induced cell migration at 50 uM; type: functional, cell-based
[9] = target: Toll-like receptor 4 (Homo sapiens) (UniProt O00206); assay: Inhibition of HMGB1 binding to TLR4 in human monocytes assessed as reduction in HMGB1-induced IL-6 production at 100 uM by cytometric bead array; type: cell-based; settings: Monocyte
Toll-like receptor 4 (Homo sapiens), sequence (O00206 whole entry): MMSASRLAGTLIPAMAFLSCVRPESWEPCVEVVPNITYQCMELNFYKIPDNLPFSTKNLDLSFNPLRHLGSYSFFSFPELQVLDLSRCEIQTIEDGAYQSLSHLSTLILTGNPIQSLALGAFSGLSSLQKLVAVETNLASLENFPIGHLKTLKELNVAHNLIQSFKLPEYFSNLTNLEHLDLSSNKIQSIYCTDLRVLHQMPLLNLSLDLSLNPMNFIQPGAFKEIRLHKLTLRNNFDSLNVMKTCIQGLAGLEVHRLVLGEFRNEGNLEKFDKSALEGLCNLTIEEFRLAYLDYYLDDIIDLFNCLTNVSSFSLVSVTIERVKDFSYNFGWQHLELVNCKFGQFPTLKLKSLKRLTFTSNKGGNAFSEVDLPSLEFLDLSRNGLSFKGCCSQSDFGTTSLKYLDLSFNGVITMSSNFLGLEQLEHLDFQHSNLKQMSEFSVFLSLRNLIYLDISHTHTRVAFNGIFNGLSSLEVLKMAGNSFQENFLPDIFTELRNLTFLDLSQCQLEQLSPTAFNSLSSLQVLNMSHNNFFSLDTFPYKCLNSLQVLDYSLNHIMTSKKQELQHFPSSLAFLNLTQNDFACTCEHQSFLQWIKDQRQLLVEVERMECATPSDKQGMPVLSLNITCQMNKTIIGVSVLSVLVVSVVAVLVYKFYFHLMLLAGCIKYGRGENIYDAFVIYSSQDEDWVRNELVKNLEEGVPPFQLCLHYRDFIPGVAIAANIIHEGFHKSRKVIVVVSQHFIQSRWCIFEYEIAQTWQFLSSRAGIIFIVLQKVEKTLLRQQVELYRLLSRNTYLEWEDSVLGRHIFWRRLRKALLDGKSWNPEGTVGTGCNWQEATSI

[10] = target: Toll-like receptor 4 (Homo sapiens) (UniProt O00206); assay: Inhibition of HMGB1 binding to TLR4 in human monocytes assessed as reduction in HMGB1-induced TNF production at 100 uM by cytometric bead array; type: cell-based; settings: Monocyte

inhibition [1]: Active
Compound: CC1(C)[C@@H](O[C@H]2O[C@H](C(=O)O)[C@@H](O)[C@H](O)[C@H]2O[C@@H]2O[C@H](C(=O)O)[C@@H](O)[C@H](O)[C@H]2O)CC[C@]2(C)[C@H]3C(=O)C=C4[C@@H]5C[C@@](C)(C(=O)O)CC[C@]5(C)CC[C@@]4(C)[C@]3(C)CC[C@@H]12

Kd [2]: 1600 µM
Compound: O=C(O)c1cc(-c2ccc(F)cc2F)ccc1O [DIFLUNISAL]

Kd ([3]; read-out: Kd): 160 µM
Compound: H-ERWIH-OH

Kd [3]: Not Active
Compound: H-GYHYE-OH

inhibition [4]: Active | inhibition [5]: inactive | inhibition [6]: Active | inhibition [7]: inactive | inhibition [8]: 50% | inhibition [9]: inactive | inhibition [10]: inactive
Compound: H-GYHYERWIH-OH

inhibition [4]: Active | inhibition [5]: inactive
Compound: H-HWTLANWCR-OH

inhibition [4]: Active | inhibition [5]: Active
Compound: H-WISNWILMW-OH

inhibition [4]: Active | inhibition [5]: Active
Compound: H-YHICWYGDY-OH
